Literature values as cited in EP4729597A1, “LOW-ALCOHOL BEER-LIKE BEVERAGE AND METHOD FOR PRODUCING LOW-ALCOHOL BEER-LIKE BEVERAGE” (Asahi Group Holdings, Ltd., priority 2023, dated 2024).
Read-outs that look alike come from different tables or passages of the source.

[1] = Table 1, octanol/water partition coefficient

SMILES	LogP [1]	LogP (Table 3)	LogP
CC(C)=CCCC(C)CCO (centres unmarked) [Citronellol]	3.9	3.9	–
CCCCCCCC(=O)OCC [Ethyl octanoate]	3.8	3.8	–
CC(C)=CCC/C(C)=C/CO [Geraniol]	3.6	3.6	–
CC(=O)OCCC(C)C [Isoamyl acetate]	–	2.3	2.3
C=CC(=C)CCC=C(C)C [Myrcene]	4.3	4.3	–
CC(=O)/C=C/C1=C(C)CCCC1(C)C [β-ionone]	4.0	–	–
